Assays:
[1] = tested on: Aspergillus fumigatus IAM 2593; test: MIC, two-fold agar dilution method; format: cell-based; conditions: Sabouraud agar
How it was run: (§1)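 Agar dilution (2-fold series) on nutrient agar (bacteria) or Sabouraud agar (fungi).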

[2] = tested on: Bacillus subtilis PCI 219; test: MIC, two-fold agar dilution method; format: cell-based; conditions: nutrient agar
How it was run: as §1

[3] = tested on: Candida albicans IAM 4888; test: MIC, two-fold agar dilution method; format: cell-based; conditions: Sabouraud agar
How it was run: (§2)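 Compounds are diluted two-fold through agar plates: Sabouraud medium for the fungus, nutrient medium for the bacterial strains, including the acid-fast Mycobacterium 607. Organisms are then applied and the minimum inhibitory concentration is recorded.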

Escherichia coli NIHJ = test: MIC, two-fold agar dilution method; format: cell-based; conditions: nutrient agar
How it was run: as §2

Mycobacterium 607 = test: MIC, two-fold agar dilution method; format: cell-based; conditions: nutrient agar
How it was run: as §1

Proteus mirabilis A9554 = test: MIC, two-fold agar dilution method; format: cell-based; conditions: nutrient agar
How it was run: as §2

Sarcina lutea PCI1001 = test: MIC, two-fold agar dilution method; format: cell-based; conditions: nutrient agar
How it was run: as §1

[4] = tested on: Staphylococcus aureus Smith; test: MIC, two-fold agar dilution method; format: cell-based; conditions: nutrient agar
How it was run: as §1

[5] = tested on: Mycobacterium smegmatis strain M6-3; test: Relative antibacterial potency, paper-disc agar diffusion method; format: cell-based; conditions: relative to tallysomycin A standard=1000 mcg/mg
Method: The relative antibacterial potencies (tallysomycin A standard=1000 mcg/mg) of the tallysomycin derivatives were determined by the paper-disc agar diffusion method using Mycobacterium smegmatis strain M6-3 as the assay organism.

[6] = tested on: lysogenic bacterium E. coli W1709 (λ); test: Prophage induction of lysogenic bacterium (ILB activity); format: cell-based; conditions: t/c ratio of plaque counts greater than 3.0
How it was run: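 Plaques counted on agar plates containing test compound and on control plates, following Lein et al. A test/control plaque ratio above 3.0 counted as significant. Value given as the minimum inducible concentration.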

[7] = tested on: Lymphocytic leukemia P388; test: animal or person; format: in vivo, BDF1 mice; conditions: copper-chelated form unless otherwise stated; for Antitumor activity P388 (ED125): ip, once daily 9 days, dose giving T/C survival of 125%; for Antitumor therapeutic index P388: single dose LD50/ED125
How it was run: (§3)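 P388 (3×10^5 cells) and Lewis lung (5×10^5) i.p. in BDF1 mice, B16 (5×10^5) s.c. in BDF1, Sarcoma 180 ([…]) i.p. in male dd mice. ED125 (Sarcoma 180 ED150) from median-survival T/C, 45 days; B16 ID50 from day-16 tumor size.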

Sarcoma 180 = test: animal or person; format: in vivo, dd-strain mice; conditions: copper-chelated form unless otherwise stated; for Antitumor activity S180 (ED150): ip, once daily 9 days, effective dose 150, survival; for Antitumor therapeutic index S180: single dose LD50/ED150
How it was run: as §3

Melanotic melanoma B16 = test: Antitumor activity in mice, melanotic melanoma B16; format: in vivo, BDF1 mice; conditions: copper-chelated form unless otherwise stated; for Antitumor activity B16 (ID50): ip, once daily 9 days, 50% inhibition of tumor growth, day 16, 23040 min; for Antitumor therapeutic index B16: single dose LD50/ID50
How it was run: as §3

Lewis lung carcinoma = test: Antitumor activity in mice, Lewis lung carcinoma; format: in vivo, BDF1 mice; conditions: copper-chelated form unless otherwise stated; for Antitumor activity Lewis lung (ED125): ip, once daily 11 days, dose giving T/C survival of 125%; for Antitumor therapeutic index Lewis Lung: single dose LD50/ED125
How it was run: as §3

[8] = Acute toxicity, single dose LD50; format: in vivo, dd mice; conditions: ip, 30 days observation, copper-chelated form unless otherwise stated
Method: (§4) Graded doses of test compounds were administered intraperitoneally to groups of dd mice. The injection was given one time only or once daily for 9 consecutive days. Death or survival of the animals was recorded for 30 days after the last dose of test compound to calculate the single or multiple median lethal dose (LD50).

[9] = Subacute toxicity, multiple dose LD50; format: in vivo, dd mice; conditions: ip, once daily 9 days, 30 days observation; copper-chelated form unless otherwise stated
Method: as §4

[10] = Nephrotoxicity in a mouse model utilizing BUN measurement; format: in vivo; conditions: compared with bleomycin at equitoxic doses
malignant tumors = test: Initial studies using experimental animals: antitumor activity; format: in vivo; conditions: broad spectrum of malignant tumors; copper-free and copper-chelated forms
[11] = in vivo
[12] = in vivo; remark: listed apart in the source

Row | Structure (SMILES) | minimum inhibitory concentration (MIC) [1] | minimum inhibitory concentration (MIC) [2] | minimum inhibitory concentration (MIC) [3] | minimum inhibitory concentration (MIC) (Escherichia coli NIHJ) | minimum inhibitory concentration (MIC) (Mycobacterium 607) | minimum inhibitory concentration (MIC) (Proteus mirabilis A9554) | minimum inhibitory concentration (MIC) (Sarcina lutea PCI1001) | minimum inhibitory concentration (MIC) [4] | Antibacterial potency [5] | ILB activity (minimum inducible concentration) [6] [µg/mL] | Antitumor activity P388 (ED125) [7] [mg/kg/day] | Antitumor therapeutic index P388 [7] | Antitumor activity S180 (ED150) (Sarcoma 180) [mg/kg/day] | Antitumor therapeutic index S180 (Sarcoma 180) | Antitumor activity B16 (ID50) (Melanotic melanoma B16) [mg/kg/day] | Antitumor therapeutic index B16 (Melanotic melanoma B16) | Antitumor activity Lewis lung (ED125) (Lewis lung carcinoma) [mg/kg/day] | Antitumor therapeutic index Lewis Lung (Lewis lung carcinoma) | LD50 single dose [8] [mg/kg/day] | LD50 multiple dose (qd 1 → 9) [9] [mg/kg/day] | also measured
1 | Cc1c(N)nc(C(CC(N)=O)NCC(N)C(N)=O)nc1C(=O)NC(C(=O)NC(C)C(O)CC(=O)NC(C(=O)NC(OC1OC(C)C(N)C(O)C1O)C(O)c1nc(-c2nc(C(=O)NCCC[S+](C)C)cs2)cs1)C(C)O)C(OC1OC(CO)C(O)C(O)C1OC1OC(CO)C(O)C(OC(N)=O)C1O)c1cnc[nH]1.Cl.Cl.Cl.[Cl-] (stereo not shown) [Tallysomycin S2b] | 0.8 | < 0.05 | 25 | 0.4 | 0.2 | 1.6 | 6.3 | 1.6 | 300 μ/mg | 0.63 | 0.91 | 35 | 0.12 | 267 | 0.33 | 97 | 0.65 | 49 | 32 | 2.0 | 
2 | Cc1c(N)nc(C(CC(N)=O)NCC(N)C(N)=O)nc1C(=O)NC(C(=O)NC(C)C(O)CC(=O)NC(C(=O)NC(OC1OC(C)C(N)C(O)C1O)C(O)c1nc(-c2nc(C(=O)NCCNCC(C)O)cs2)cs1)C(C)O)C(OC1OC(CO)C(O)C(O)C1OC1OC(CO)C(O)C(OC(N)=O)C1O)c1c[nH]cn1 (stereo not shown) [Tallysomycin S5b] | 0.4 | 0.025 | 25 | 0.4 | 0.2 | 3.1 | 12.5 | 6.3 | 500 μ/mg | 0.08 | 0.66 | 70 | 0.10 | 460 | 0.31 | 148 | 0.38 | 121 | 46 | 4.0 | 
3 | Cc1c(N)nc([C@H](CC(N)=O)NC[C@H](N)C(N)=O)nc1C(=O)N[C@H](C(=O)N[C@H](C)[C@@H](O)CC(=O)N[C@H](C(=O)NC(O[C@@H]1O[C@@H](C)[C@@H](N)[C@@H](O)[C@H]1O)C(O)c1nc(-c2nc(C(=O)NCCCCN)cs2)cs1)[C@@H](C)O)[C@@H](O[C@@H]1O[C@@H](CO)[C@@H](O)[C@H](O)[C@@H]1O[C@H]1O[C@H](CO)[C@@H](O)[C@H](OC(N)=O)[C@@H]1O)c1cnc[nH]1 (stereo partly shown) [Tallysomycin S10b] | 6.3 | 0.2 | 12.5 | 0.8 | 0.2 | 3.1 | 3.1 | 6.3 | 1,100 μ/mg | 0.31 |  |  | 0.03 | 900 | 0.59 | 46 |  |  | 27 |  | toxicity to the kidney (BUN) [10]: no greater than that of bleomycin at equitoxic doses; antitumor activity (malignant tumors): excellent antitumor activity against a broad spectrum of malignant tumors; dose response slope, lung hydroxyproline [11]: flatter than that observed with bleomycin; hydroxyproline content at high doses [11]: reduced compared to that of animals treated with bleomycin at equitoxic doses; lung hydroxyproline [11]: caused an increase in lung hydroxyproline suggesting pulmonary toxicity; undesirable side effects (e.g. nephrotoxicity) [12]: less undesirable side effects (e.g. nephrotoxicity) than the naturally-occurring tallysomycin A and B
